This note sets out measurements from patent US20240392343A1, “METHODS TO SCREEN YEAST TO IDENTIFY XENOBIOTICS THAT TARGET PESTS, PATHOGENS AND PARASITES” (The Governing Council of the University of Toronto, priority 2023, published 2024).

Data set [1] relates to C. elegans and diverse PPN species. Briefly: Worm mobility after cyproside-3 exposure with 1-ABT. The data set is classed as in vivo. The conditions noted are these: 72-hour exposure to 20 μM cyproside-3 (C. elegans) or 60 μM cyproside-3 (all other species). The text has this:
(§1) FIGS. A-A′″ show HPLC chromatograms with cyproside-3 (abbreviated cypros-3) unmodified parent molecule (P) and metabolite (M1-M5) peaks indicated. MP1 is a cyproside-3 metabolite uniquely produced in P. penetrans. Y-axis indicates absorbance wavelength in nm. FIGS. B-B′″ show quantification of unmodified cyproside-3 parent (P) and metabolite peaks from A-A′″. Error bars indicate SEM, p-values calculated using unpaired t-test. FIGS. C-C′″ show the proportion mobile worms relative to DMSO solvent controls after 72-hour exposure to 20 μM cyproside-3 (C. elegans) or 60 μM cyproside-3 (all other species). P-values calculated using unpaired t-test.
(§2) Using the pan-P450 inhibitor (1-ABT), cyproside-3's metabolism was inhibited in vivo (FIGS. 11A and 11B).

In data set [2] the test system is cytochrome P450s in C. elegans and diverse PPN species. The data set can be described thus: HPLC of cyproside-3 parent and metabolites in whole worms with pan-P450 inhibitor 1-ABT. The data set is classed as in vivo.
Text: as §1, §2

Another data set concerns Mi-CYP4731A3. Briefly: HPLC analysis of lysates of yeast expressing CYP4731A3. The format is in vitro ADME, Meloidogyne incognita. The conditions noted are these: lysates of yeast treated with 100 μM compound. An excerpt:
(§3) Each data point corresponds to an individual yeast strain expressing a unique M. incognita CYP enzyme. The data point above the dotted line has a p-value <0.01, and corresponds to the strain expressing M. incognita CYP4731A3. […] Unmodified sel-A and metabolites M2 and M3 are indicated. […] AUC is the area under the curve for M2 and M3 combined, calculated at 260 nm. Error bars are SEM. The p-value was obtained from an unpaired one-tailed Student's t-test comparing the means of empty vector control and CYP4731A3 expressing yeast. M1 was not detectable.
Each data point corresponds to an individual yeast strain expressing a unique M. incognita P450 enzyme. The data point above the dotted line has a p-value <0.01 and corresponds to the strain expressing M. incognita CYP4731A3. […] Viability relative to untreated controls is indicated by the grey-coded scale. […] Peaks corresponding to the unmodified cyproside-3 and the three cyproside-3 metabolites visible using the HPLC-DAD system (M1, M2 and M3) are indicated. […] AUC is the area under the curve, error bars indicate SEM. The p-values were obtained from unpaired two-tailed Student's t-tests comparing the means of the empty vector control and CYP4731A3 expressing yeast. […]

The next data set has as its system Meloidogyne incognita. The data set can be described thus: Soil-based tomato root infection assay. The format is in vivo. The conditions noted are these: 6 weeks of infection in soil drenched with chemical. An excerpt:
Cyprosides 3-2, 3-3, and 3-4 are structural analogs of cyproside-3. […] All error bars represent SEM, p-values calculated using an unpaired t test vs. solvent controls. […] Cyprosides 3-7, 3-12, 3-25, and 3-26 are structural analogs of cyproside-3. The other data points represent negative (water, DMSO) and positive (fluopyram, tioxazafen) controls. All error bars represent SEM.
There were no significant adverse effects on plant growth by the cyproside-3s as evident by the resulting root mass (FIG. 12C).

The subject of the next data set is M. incognita CYP4731A3. The data set can be described thus: CYPce assay: yeast-based M. incognita CYP expression screen and dose-response. The format is cell-based, Meloidogyne incognita. The conditions noted are these: 19 M. incognita CYP-expressing yeast strains vs empty vector, 50 μM in screen.
Text: as §3
Each data point corresponds to an individual yeast strain expressing a unique M. incognita P450 enzyme. The data point above the dotted line has a p-value <0.01 and corresponds to the strain expressing M. incognita CYP4731A3. […] Viability relative to untreated controls is indicated by the grey-coded scale. […] Peaks corresponding to the unmodified cyproside-3 and the three cyproside-3 metabolites visible using the HPLC-DAD system (M1, M2 and M3) are indicated. […] AUC is the area under the curve, error bars indicate SEM. […]
With that single strain, a library of small molecules are screened for those that can be bioconverted by the heterologously-expressed enzyme into a product that kills the cells expressing the enzyme. As set out herein, the growth of cells was measured, for example, by a variety of means, including optical density. […]

Data set [3] has as its system human cells (HEK293 and HepG2), fungi (Saccharomyces cerevisiae and Candida albicans) and plant beneficial rhizobacteria (Pseudomonas simiae WCS417 and …). The data set can be described thus: Dose-response analysis on off-target systems (FIG. 10). The conditions noted are these: HEK293, HepG2, S. cerevisiae, C. albicans, P. simiae WCS417, P. defensor WCS374; relative to solvent control. The data set is classed as cell-based. An excerpt: (§4) Dose-response analysis of cyproside-3 and tioxazafen on diverse nematode species and off-target systems including human cells (HEK293 and HepG2), fungi (Saccharomyces cerevisiae and Candida albicans) and plant beneficial rhizobacteria (Pseudomonas simiae WCS417 and Pseudomonas defensor WCS374). The activity of the compound relative to the solvent control in each assay is indicated by the gray coded scale.

Another data set deals with T1, CYP-35D1 (Caenorhabditis elegans, UniProt O45364).
T1 construct: expressed in transfected cells; host or cells: Saccharomyces cerevisiae (yeast), expression vector vs empty vector
T1 sequence (O45364 1-499): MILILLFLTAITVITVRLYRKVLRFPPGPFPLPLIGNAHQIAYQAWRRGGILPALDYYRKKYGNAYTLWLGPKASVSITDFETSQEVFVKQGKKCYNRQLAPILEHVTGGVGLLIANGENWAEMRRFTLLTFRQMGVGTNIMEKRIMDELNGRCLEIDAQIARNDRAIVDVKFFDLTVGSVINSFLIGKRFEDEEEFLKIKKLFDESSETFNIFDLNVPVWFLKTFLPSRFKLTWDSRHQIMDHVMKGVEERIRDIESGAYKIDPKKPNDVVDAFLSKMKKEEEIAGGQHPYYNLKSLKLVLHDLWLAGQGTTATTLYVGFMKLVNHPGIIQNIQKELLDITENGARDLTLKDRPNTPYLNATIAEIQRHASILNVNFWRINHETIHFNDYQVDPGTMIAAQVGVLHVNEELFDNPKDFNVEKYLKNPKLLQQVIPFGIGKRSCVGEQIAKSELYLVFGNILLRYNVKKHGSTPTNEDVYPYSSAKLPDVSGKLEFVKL
Briefly: HPLC / LCMS analysis of cyproside-3 metabolites, CYP-35D1. The data set is classed as in vitro ADME, C. elegans. The note with it: lysates of yeast after treatment with 100 μM cyproside-3. The text has this:
(§5) In this condition cyproside-3 is not metabolized into a lethal product and yeast are viable. […] CYP-35D1 is capable of metabolizing cyproside-3 into an active metabolite which leads to reduced viability in the yeast. […] Viability relative to untreated controls is indicated by the gray coded scale. […] AUC is the area under the curve, error bars indicate SEM. The p-values were obtained from unpaired two-tailed Student's t-tests comparing the means of the empty vector control and CYP-35D1 expressing yeast. […] Peaks corresponding to the unmodified cyproside-3 and the three cyproside-3 metabolites visible using our HPLC-DAD system (M1, M2 and M3) are indicated.
Cytochrome P450 enzymes (CYPs) catalyze the S-oxidation of cyproside-3 which produces an electrophilic sulfoxide metabolite. This sulfoxide metabolite reacts with glutathione (GSH) and is further processed to γ-Glutamyl-Cysteine (γ-Glu-Cys), Cysteinylglycine (Cys-Gly) and cysteine (Cys) conjugates.

Another data set concerns the target T2, C. elegans P450 CYP-35D1 (Caenorhabditis elegans, UniProt O45364).
T2 construct: expressed in transfected cells; host or cells: Saccharomyces cerevisiae (yeast), expression vector vs empty vector
T2 sequence (O45364 1-499): T1 sequence (O45364 1-499)
Briefly: CYPce assay: viability of yeast expressing CYP-35D1 vs empty vector. The note with it: yeast expressing CYP-35D1 vs empty vector yeast; dose-response. The format is cell-based.
Text: as §5
CYPce (pronounced sip-sea) is an acronym for the heterologous expression of CYPs in S. cerevisiae for the purpose of identifying P450s that can bioactivate small molecules into lethal products that may or may not be reactive. […]
(§6) With that single strain, a library of small molecules are screened for those that can be bioconverted by the heterologously-expressed enzyme into a product that kills the cells expressing the enzyme. As set out herein, the growth of cells was measured, for example, by a variety of means, including optical density.

Data set [4] has as its system diverse nematode species (non-parasitic and plant parasitic species). The data set can be described thus: Dose-response analysis on diverse nematode species (FIG. 10). The note with it: dose-response relative to solvent control. The format is in vivo.
Text: as §4

For another data set, the system named is CYP-35C1. The format is in vitro ADME. The conditions noted are these: C. elegans. An excerpt: (§7) Viability relative to untreated controls is indicated by the gray coded scale. […] The p-values were obtained from unpaired two-tailed Student's t-tests comparing the means of the empty vector control and CYP-35C1 expressing yeast.
FIGS. 6A-C show mass spectrometry (MS) data for metabolite M1-M3 HPLC fractions and untreated control fractions, as well as MS/MS fragmentation data for selected masses. Structures of γ-glutamylcysteine (γ-Glu-Cys) (A), glutathione (B), and cysteine (C) conjugates of a selectivin-A (sel-A) electrophilic sulfoxide metabolite are shown, along with fragmentations that produce masses found in the MS/MS plots. […] S-oxidation produces an electrophilic sulfoxide metabolite that reacts with glutathione (GSH) either spontaneously or via glutathione-S-transferase (GST), and is likely further processed to 7-Glu-Cys and cysteine conjugates via phytochelatin synthase (PCS) and 7-glutamyl transferase (GGT), respectively. Cytochrome p450 enzymes (CYPs) likely mediate S-oxidation.

For the next data set, the system named is C. elegans P450 CYP-35C1. The data set can be described thus: CYPce assay: viability of yeast expressing CYP-35C1 vs empty vector. The conditions noted are these: yeast expressing CYP-35C1 vs empty vector yeast; dose-response. The format is cell-based.
Text: as §7
CYPce (pronounced sip-sea) is an acronym for the heterologous expression of CYPs in S. cerevisiae for the purpose of identifying P450s that can bioactivate small molecules into lethal products that may or may not be reactive. The CYPce assay relies on culturing a single strain of yeast (S. cerevisiae) (or any convenient cell type in other embodiments) that expresses a single P450 enzyme (or any other small molecule modifying enzyme in other embodiments) from a single targeted organism (FIG. 2).
as §6

SMILES strings stand for the structures. “Also recorded” adds a separate entry of the source.

With `Nn1nnc2ccccc21` [Cyproside 1-ABT, reference compound], in data set [1], the “effect of 1-ABT on cyproside-3's effects on the worms (mobility)” value is listed as “inhibited cyproside-3's effects on the worms”. The “effect of 1-ABT on cyproside-3's metabolism in vivo” value in data set [2] is recorded as “inhibited”.

Consider `CCSc1nnc(-c2ccc(Cl)cc2)o1` [cyproside-3, 2-(4-chlorophenyl)-5-(ethylthio)-1,3,4-oxadiazole], for which the “metabolism by Mi-CYP4731A3 in yeast (HPLC)” value in the data set with Mi-CYP4731A3 is recorded as “metabolized by Mi-CYP4731A3 in yeast”. The “control of root infection by M. incognita (eggs per milligram of tomato root tissue)” value in the data set on Meloidogyne incognita is “demonstrated activity”. The “yeast killing dependent on Mi-CYP4731A3” value in the data set on M. incognita CYP4731A3 is “can kill yeast in a Mi-CYP4731A3-dependent manner”. The “activity against non-targeted cells and organisms” value in [3] was “little-to-no activity against non-targeted cells and organisms”. Moreover, the “metabolism by CYP-35D1 (HPLC)” value at CYP-35D1 is listed as “metabolized by CYP-35D1 into a reactive product”. For the same compound, the “yeast killing dependent on CYP-35D1” value on C. elegans P450 CYP-35D1 is “killed yeast in a manner dependent on C. elegans P450 CYP-35D1”. In addition, the “phylogenetic activity profile: activity on nematode species” value in [4] was “high selectivity for all nematode species tested; also recorded: broad-spectrum activity in plant-parasitic nematodes”.

As to `Clc1ccc(-c2cn3ccsc3n2)cc1` [selectivin-A, 6-(4-chlorophenyl)imidazo[2,1-b]thiazole], in the data set with CYP-35C1, the “nature of product of metabolism by CYP-35C1 (LCMS and NMR)” value is given as “metabolized by CYP-35C1 into a reactive lethal product”. The “metabolism by CYP-35C1 in yeast (HPLC)” value in the data set on CYP-35C1 (100 μM) is on record as “metabolized by CYP-35C1 in yeast”. Also, the “metabolism by Mi-CYP4731A3 in yeast (HPLC)” value with Mi-CYP4731A3 is recorded as “metabolized by Mi-CYP4731A3 in yeast”. The “yeast killing dependent on Mi-CYP4731A3” value in the data set with M. incognita CYP4731A3 is given as “kills yeast in a Mi-CYP4731A3-dependent manner”. In the data set on C. elegans P450 CYP-35C1, the “yeast killing dependent on CYP-35C1” value was “kills yeast in a manner dependent on the C. elegans P450 CYP-35C1”.
